Values after ≈ are worked out from the molar mass of the structure shown. Values joined by “and” are separate entries in the source; they are usually repeats but may differ in a detail not shown here. Identical values can stand only once.
Columns and labels:
Experiment in all cases: ≥ marks a high value that may be exact or a test limit, other limits are often not marked, values filed in µg/mL are converted to µM
[1] = test system: Escherichia coli KCTC 1682
[2] = test system: Bacillus subtilis KCTC 3068
[3] = test system: Salmonella typhimurium KCTC 1926
[4] = test system: Staphylococcus epidermidis KCTC 1917
[5] = test system: Pseudomonas aeruginosa KCTC 1637
[6] = test system: Staphylococcus aureus KCTC 1621
[7] = test system: Streptococcus mutans
[8] = test system: Salmonella enterica subsp. enterica serovar Typhimurium ATCC 14028
[9] = test system: Escherichia coli UB1005
[10] = test system: Staphylococcus epidermidis ATCC 12228
[11] = test system: Pseudomonas aeruginosa ATCC 27853
[12] = test system: Salmonella enterica subsp. enterica serovar Pullorum C79-13
[13] = test system: Enterococcus faecalis ATCC 29212
[14] = test system: Salmonella enterica subsp. enterica serovar Typhimurium C77-31
[15] = test system: Staphylococcus aureus ATCC 29213
[16] = test system: Escherichia coli ATCC 25922
[17] = test system: Acinetobacter baumannii
[18] = test system: Candida albicans ATCC 90028
[19] = test system: Acinetobacter baumannii ATCC 19606
[20] = test system: Staphylococcus aureus ATCC 25923
[21] = test system: Staphylococcus aureus MR
[22] = test system: Escherichia coli NCTC 10418

SMILES	MIC [1] [µM]	MIC [2] [µM]	MIC [3] [µM]	MIC [4] [µM]	MIC [5] [µM]	MIC [6] [µM]	MIC [7] [µM]	also measured
CC[C@H](C)[C@H](NC(=O)[C@H](CCCN=C(N)N)NC(=O)[C@H](CCCCN)NC(=O)[C@H](CCCN=C(N)N)NC(=O)[C@@H](NC(=O)[C@H](CCCN=C(N)N)NC(=O)[C@@H](N)CCCCN)[C@@H](C)CC)C(=O)N[C@@H](CCCCN)C(=O)N[C@@H](CCCCN)C(=O)N[C@@H](Cc1c[nH]c2ccccc12)C(=O)N[C@@H](CCCCN)C(=O)N[C@@H](CCCN=C(N)N)C(N)=O [KRIRKRIKKWKR]	2 (≈ 3.39 µg/mL)	4 (≈ 6.78 µg/mL)	2 (≈ 3.39 µg/mL)	2 (≈ 3.39 µg/mL)	2 (≈ 3.39 µg/mL)	4 (≈ 6.78 µg/mL)		
NCCCC[C@H](NC(=O)[C@H](Cc1c[nH]c2ccccc12)NC(=O)[C@H](CCCN=C(N)N)NC(=O)[C@H](CCCCN)NC(=O)[C@H](CCCN=C(N)N)NC(=O)[C@H](Cc1c[nH]c2ccccc12)NC(=O)[C@@H](N)CCCN=C(N)N)C(=O)O [RWRKRWK]							≥ 224	
CC(C)C[C@H](NC(=O)[C@H](C)NC(=O)[C@H](Cc1c[nH]c2ccccc12)NC(=O)[C@H](CCCCN)NC(=O)[C@H](CC(N)=O)NC(=O)[C@H](Cc1c[nH]c2ccccc12)NC(=O)[C@H](CCCCN)NC(=O)[C@H](CCCCN)NC(=O)[C@H](CCCN=C(N)N)NC(=O)[C@H](Cc1ccccc1)NC(=O)[C@H](CCC(=O)O)NC(=O)[C@H](CO)NC(=O)[C@H](C)NC(=O)[C@@H](NC(=O)[C@H](CC(=O)O)NC(=O)[C@H](CC(C)C)NC(=O)[C@H](CCCN=C(N)N)NC(=O)[C@H](C)N)C(C)C)C(=O)N[C@@H](CO)C(=O)N[C@@H](CCCN=C(N)N)C(N)=O [ARLDVASEFRKKWNKWALSR]	8 (≈ 19.7 µg/mL)	8 (≈ 19.7 µg/mL)	16 (≈ 39.4 µg/mL)	8 (≈ 19.7 µg/mL)	≥ 32	16 (≈ 39.4 µg/mL)		
NCCCC[C@H](NC(=O)[C@H](CCCN=C(N)N)NC(=O)[C@H](CCCN=C(N)N)NC(=O)[C@H](Cc1c[nH]c2ccccc12)NC(=O)[C@H](Cc1c[nH]c2ccccc12)NC(=O)[C@H](CCCN=C(N)N)NC(=O)[C@@H](N)CCCN=C(N)N)C(=O)O [RRWWRRK]							≥ 109	
CC[C@H](C)[C@H](NC(=O)[C@H](CCCCN)NC(=O)[C@H](CCCCN)NC(=O)[C@H](CC(C)C)NC(=O)[C@@H](N)CCCCN)C(=O)N[C@H](C(=O)N[C@H](C(=O)N[C@H](C(=O)N[C@@H](CCCCN)C(=O)N[C@H](C(=O)N[C@@H](CCCCN)C(=O)N[C@@H](CCCCN)C(N)=O)C(C)C)[C@@H](C)CC)C(C)C)C(C)C [KLKKIVVIKVKK]	8.78 (≈ 12.5 µg/mL)	8.78 (≈ 12.5 µg/mL)	2.2 (≈ 3.13 µg/mL)	2.2 (≈ 3.13 µg/mL)	17.6 (≈ 25 µg/mL)	8.78 (≈ 12.5 µg/mL)		
CC[C@H](C)[C@H](N)C(=O)NCC(=O)N[C@@H](CCCCN)C(=O)N[C@@H](CC(C)C)C(=O)N[C@@H](Cc1ccccc1)C(=O)N[C@@H](CCCCN)C(=O)N[C@@H](CCCN=C(N)N)C(=O)N[C@H](C(=O)N[C@H](C(=O)N[C@@H](CCC(N)=O)C(=O)N[C@@H](CCCN=C(N)N)C(=O)N[C@H](C(=O)N[C@@H](CC(C)C)C(=O)N[C@@H](CCCCN)C(=O)N[C@@H](Cc1ccccc1)C(=O)N[C@@H](CC(C)C)C(=O)N[C@@H](CCCN=C(N)N)C(=O)N[C@@H](CC(N)=O)C(=O)N[C@@H](CC(C)C)C(=O)O)[C@@H](C)CC)C(C)C)[C@@H](C)CC [IGKLFKRIVQRILKFLRNL]	8 (≈ 18.8 µg/mL)	2 (≈ 4.71 µg/mL)	4 (≈ 9.42 µg/mL)	8 (≈ 18.8 µg/mL)	8 (≈ 18.8 µg/mL)	8 (≈ 18.8 µg/mL)		
CC(C)C[C@H](NC(=O)[C@H](CC(C)C)NC(=O)[C@H](Cc1cnc[nH]1)NC(=O)[C@H](Cc1cnc[nH]1)NC(=O)[C@H](CC(C)C)NC(=O)[C@H](Cc1cnc[nH]1)NC(=O)[C@H](CCCCN)NC(=O)[C@H](CC(C)C)NC(=O)[C@H](CC(C)C)NC(=O)[C@H](CCCCN)NC(=O)[C@H](CCCCN)NC(=O)[C@H](CC(C)C)NC(=O)[C@@H](N)CCCCN)C(=O)N[C@@H](Cc1cnc[nH]1)C(N)=O [KLKKLLKHLHHLLH]							4.55 (≈ 8 µg/mL)	
CC(C)C[C@H](NC(=O)[C@H](Cc1ccccc1)NC(=O)[C@@H]1CCCN1C(=O)[C@H](Cc1c[nH]c2ccccc12)NC(=O)[C@@H](N)Cc1c[nH]c2ccccc12)C(=O)N[C@@H](CCCN=C(N)N)C(=O)N[C@@H](CCCN=C(N)N)C(N)=O [WWPFLRR]								MIC [8]: 32 µM (≈ 33.9 µg/mL); MIC [9]: ≥ 128 µM; MIC [10]: 32 µM (≈ 33.9 µg/mL); MIC [11]: 64 µM (≈ 67.8 µg/mL); MIC [12]: ≥ 64 µM; MIC [13]: > 128 µM; MIC [14]: ≥ 64 µM; MIC [15]: 64 µM and 128 µM; MIC [16]: 64 µM and 128 µM
C[C@H](N)C(=O)N[C@@H](CCC(N)=O)C(=O)N[C@@H](C)C(=O)N[C@@H](C)C(=O)N[C@@H](CCCCN)C(=O)N[C@@H](CCC(N)=O)C(=O)N[C@@H](C)C(=O)N[C@@H](C)C(=O)N[C@@H](CCCCN)C(=O)N[C@@H](C)C(=O)N[C@@H](C)C(=O)N[C@@H](CCCCN)C(=O)N[C@@H](CCC(N)=O)C(=O)N[C@@H](Cc1ccccc1)C(N)=O [AQAAKQAAKAAKQF]							≥ 87.3	
CC[C@H](C)[C@H](NC(=O)[C@H](CCCN=C(N)N)NC(=O)[C@H](CCC(N)=O)NC(=O)[C@@H](NC(=O)[C@@H](NC(=O)[C@H](CCCN=C(N)N)NC(=O)[C@@H](N)CCCCN)[C@@H](C)CC)C(C)C)C(=O)N[C@@H](CCCCN)C(=O)N[C@@H](CCCCN)C(=O)N[C@@H](Cc1ccccc1)C(=O)N[C@@H](CC(C)C)C(=O)N[C@@H](CCCN=C(N)N)C(=O)O [KRIVQRIKKFLR]								MIC [17]: 12.6 µM (≈ 20 µg/mL); MIC [18]: 2.5 µM (≈ 3.96 µg/mL); MIC [11]: 1.25 µM (≈ 1.98 µg/mL); MIC [19]: ≥ 50.5 µM; MIC [20]: ≥ 202 µM; MIC [21]: ≥ 202 µM; MIC [15]: 1.25 µM (≈ 1.98 µg/mL); MIC [16]: 0.626 µM (≈ 0.992 µg/mL)
CC(C)C[C@H](NC(=O)CNC(=O)CNC(=O)CNC(=O)[C@H](Cc1c[nH]c2ccccc12)NC(=O)[C@H](CCCCN)NC(=O)[C@H](Cc1c[nH]c2ccccc12)NC(=O)[C@H](CCCCN)NC(=O)[C@H](Cc1c[nH]c2ccccc12)NC(=O)[C@H](CCCCN)NC(=O)CNC(=O)[C@H](CC(N)=O)NC(=O)[C@H](CCCCN)NC(=O)[C@H](Cc1c[nH]c2ccccc12)NC(=O)[C@H](CCCCN)NC(=O)[C@H](Cc1c[nH]c2ccccc12)NC(=O)[C@H](CCCCN)NC(=O)[C@@H](N)Cc1c[nH]c2ccccc12)C(=O)N[C@H](C(=O)N[C@H](C(=O)N[C@@H](CC(C)C)C(=O)N[C@H](C(=O)N[C@@H](Cc1ccccc1)C(=O)N[C@H](C(=O)O)C(C)C)C(C)C)[C@@H](C)O)C(C)C [WKWKWKNGKWKWKWGGGLVTLVFV]								MIC [10]: 32 µM (≈ 96.6 µg/mL); MIC [12]: 8 µM (≈ 24.1 µg/mL); MIC [13]: 16 µM (≈ 48.3 µg/mL); MIC [14]: ≥ 128 µM; MIC [15]: 8 µM (≈ 24.1 µg/mL); MIC [16]: 2 µM (≈ 6.04 µg/mL)
C[C@H](NC(=O)CN)C(=O)N1CCC[C@H]1C(=O)N[C@@H](CCCCN)C(=O)NCC(=O)N[C@H]1CSSC[C@@H](C(=O)N[C@@H](CCCCN)C(N)=O)NC(=O)[C@@H]2CCCN2C(=O)[C@H](CCCCN)NC(=O)[C@@H]2CCCN2C(=O)[C@@H]2CCCN2C(=O)[C@H](Cc2ccc(O)cc2)NC(=O)[C@H](CO)NC(=O)[C@H](CCCCN)NC(=O)[C@H]([C@@H](C)O)NC(=O)[C@H](Cc2c[nH]c3ccccc23)NC1=O [GAPKGCWTKSYPPKPCK]								MIC [22]: ≥ 160 µM
CC[C@H](C)[C@H](NC(=O)[C@H](CCCCN)NC(=O)[C@H](Cc1c[nH]c2ccccc12)NC(=O)[C@H](CC(C)C)NC(=O)[C@@H](N)CCCCN)C(=O)N[C@H](C(=O)N[C@H](C(=O)N[C@H](C(=O)N[C@@H](CCCCN)C(=O)N[C@H](C(=O)N[C@@H](Cc1c[nH]c2ccccc12)C(=O)N[C@@H](CCCCN)C(N)=O)C(C)C)[C@@H](C)CC)C(C)C)C(C)C [KLWKIVVIKVWK]	≥ 32.5	≥ 32.5	16.2 (≈ 25 µg/mL)	16.2 (≈ 25 µg/mL)	16.2 (≈ 25 µg/mL)	16.2 (≈ 25 µg/mL)		
